Test [1] deals with T1, ΔF508-CFTR (Homo sapiens, UniProt P13569, DEL508-508).
T1 construct: host or cells: CFBE41o-, doxycycline-inducible
The test is described as follows: CFTR cell surface levels using HRP-tagged ΔF508-CFTR expressing CFBE cells, in the presence of a co-corrector. The conditions noted are these: HRP-tagged ΔF508-CFTR expressing CFBE cells, in the presence of 3 μM co-corrector; for EC50: read-out: EC50. It counts as cell-based. Summed up: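 Cells were seeded with 0.5 μg/mL doxycycline and held 68 h at 37 °C. Test compounds plus 3 μM co-corrector (final 0.1% DMSO) were then added for 20 h at 33 °C. Washed cells received HRP substrate, and luminescence was normalized between DMSO and 3 μM co-corrector controls.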

Test [2] addresses T1, ΔF508-CFTR. The test is described as follows: CFTR cell surface levels using HRP-tagged ΔF508-CFTR expressing CFBE cells, intrinsic corrector capacity. It is filed as cell-based. The conditions noted are these: for EC50: read-out: EC50. Summed up: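 Here the cells express ΔF508-CFTR with horseradish peroxidase inserted in extracellular loop 4, so only rescued channel at the surface gives luminescent signal. Compounds act on their own, 20 h at the reduced temperature of 33 °C; values are percent activity relative to DMSO and a 3 μM corrector.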

[3] abbreviates: HRP-tagged ΔF508-CFTR CFBE41o- cells, compounds alone (intrinsic corrector capacity), 20 hours at 33° C., positive control 3 μM corrector.
The mark [4] stands for this setting: HRP-tagged ΔF508-CFTR CFBE41o- cells, compounds alone (intrinsic corrector capacity), 20 hours at 33° C.
Where [5] appears, read: HRP-tagged ΔF508-CFTR expressing CFBE cells, intrinsic corrector capacity (no co-corrector), 33° C., 20 hours.
[6] abbreviates: HRP-tagged ΔF508-CFTR CFBE cells, compound alone (intrinsic corrector capacity), 20 hours at 33° C.

The record followed here is US9796711B2, “Substituted pyrazolo[3,4-b]pyridin-6-carboxylic acids and method of use” (AbbVie S.àr.l., priority 2015, dated 2017).

T1 sequence (P13569 with tags, fused parts or gaps DEL508-508): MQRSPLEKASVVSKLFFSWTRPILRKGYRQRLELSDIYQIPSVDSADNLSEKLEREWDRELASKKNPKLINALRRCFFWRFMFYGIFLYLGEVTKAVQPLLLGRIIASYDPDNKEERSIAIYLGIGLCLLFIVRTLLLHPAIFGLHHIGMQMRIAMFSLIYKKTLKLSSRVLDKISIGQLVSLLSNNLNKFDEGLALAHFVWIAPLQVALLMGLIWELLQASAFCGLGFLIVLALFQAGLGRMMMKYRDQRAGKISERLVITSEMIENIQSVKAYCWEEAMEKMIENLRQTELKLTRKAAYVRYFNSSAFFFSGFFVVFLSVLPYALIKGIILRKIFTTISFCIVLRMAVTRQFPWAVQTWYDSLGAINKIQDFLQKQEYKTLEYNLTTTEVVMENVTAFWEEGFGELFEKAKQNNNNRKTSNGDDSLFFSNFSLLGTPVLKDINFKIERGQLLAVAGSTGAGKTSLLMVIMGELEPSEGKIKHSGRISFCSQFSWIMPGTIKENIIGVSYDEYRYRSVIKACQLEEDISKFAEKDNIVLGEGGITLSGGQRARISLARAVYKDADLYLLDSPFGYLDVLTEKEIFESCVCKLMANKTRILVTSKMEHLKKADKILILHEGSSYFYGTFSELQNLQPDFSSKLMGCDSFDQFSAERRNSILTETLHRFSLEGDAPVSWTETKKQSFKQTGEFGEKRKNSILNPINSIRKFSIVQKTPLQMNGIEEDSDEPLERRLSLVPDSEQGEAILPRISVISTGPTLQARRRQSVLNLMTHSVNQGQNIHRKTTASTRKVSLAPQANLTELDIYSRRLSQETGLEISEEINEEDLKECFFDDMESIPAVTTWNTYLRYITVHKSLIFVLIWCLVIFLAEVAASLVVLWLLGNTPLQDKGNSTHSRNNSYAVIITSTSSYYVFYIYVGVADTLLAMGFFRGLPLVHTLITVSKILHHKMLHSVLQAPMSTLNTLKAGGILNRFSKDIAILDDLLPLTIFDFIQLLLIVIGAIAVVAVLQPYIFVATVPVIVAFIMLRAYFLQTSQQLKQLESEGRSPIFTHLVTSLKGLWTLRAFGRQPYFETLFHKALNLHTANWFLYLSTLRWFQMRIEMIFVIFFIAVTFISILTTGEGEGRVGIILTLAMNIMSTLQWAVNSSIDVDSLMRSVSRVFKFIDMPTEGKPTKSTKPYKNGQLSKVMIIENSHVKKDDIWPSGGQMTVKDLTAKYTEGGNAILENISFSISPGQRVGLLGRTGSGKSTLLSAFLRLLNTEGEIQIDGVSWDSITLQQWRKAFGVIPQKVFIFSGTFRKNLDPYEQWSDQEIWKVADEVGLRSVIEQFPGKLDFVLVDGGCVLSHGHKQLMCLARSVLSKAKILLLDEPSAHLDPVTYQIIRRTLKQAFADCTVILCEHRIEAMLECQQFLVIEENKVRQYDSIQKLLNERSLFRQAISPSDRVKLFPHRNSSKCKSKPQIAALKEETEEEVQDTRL

As to `Cc1nn(-c2ccccc2)c2nc(C(=O)O)cc(-c3ccc(N4CCC(F)(F)CC4)cc3)c12` [compound 108, 4-[4-(4,4-difluoropiperidin-1-yl)phenyl]-3-methyl-1-phenyl-1H-pyrazolo[3,4-b]pyridine-6-carboxylic acid], the “% Activation” value in test [1] worked out at 329.7%; in test [2] (setting [3]), 145.5%. Besides, the EC50 in test [1] turned out to be 0.752 µM; in test [2] (setting [4]), 0.904 µM.

In the case of `COC(C)C1CCN(c2cc(C(=O)O)nc3c2c(C2CCC2)nn3-c2ccccc2)CC1` (stereo not shown) [compound 498, 3-cyclobutyl-4-[4-(1-methoxyethyl)piperidin-1-yl]-1-phenyl-1H-pyrazolo[3,4-b]pyridine-6-carboxylic acid], in test [1], the “% Activation” value was 435.9% and the EC50 amounted to 0.0878 µM. For the same compound, in test [2] (setting [5]), the “% Activation” value was 244.33% and the EC50 was determined as 0.326 µM.

As for `COCCN(C)c1cc(C(=O)O)nc2c1c(C(C)C)nn2-c1cccc(C)c1` [compound 209, 4-[(2-methoxyethyl)(methyl)amino]-1-(3-methylphenyl)-3-(propan-2-yl)-1H-pyrazolo[3,4-b]pyridine-6-carboxylic acid], the entries for the “% Activation” value in test [1] and in test [2] (setting [3]) were 411.9% and 165.6%, respectively. The EC50 in test [1] was 0.787 µM; in test [2] (setting [4]), 1.36 µM.

For the compound `CC(C)CN1C[C@@H]2CN(c3cc(C(=O)O)nc4c3c(C(C)C)nn4-c3ccc(F)cc3)C[C@@H]2C1` [compound 796, 1-(4-fluorophenyl)-4-[(3aR,6aS)-5-(2-methylpropyl)hexahydropyrrolo[3,4-c]pyrrol-2(1H)-yl]-3-(propan-2-yl)-1H-pyrazolo[3,4-b]pyridine-6-carboxylic acid], in test [1], the “% Activation” value is 358% and the EC50 was found to be 1.67 µM. Further, in test [2] (setting [5]), the “% Activation” value stood at 169.7% and the EC50 was found to be 1.67 µM.

Take `CC(C)c1nn(C2CCCCC2)c2nc(C(=O)O)cc(C3=CCN(C(=O)OC(C)(C)C)CC3)c12` [compound 371, 4-[1-(tert-butoxycarbonyl)-1,2,3,6-tetrahydropyridin-4-yl]-1-cyclohexyl-3-(propan-2-yl)-1H-pyrazolo[3,4-b]pyridine-6-carboxylic acid]: the “% Activation” value in test [1] is listed as 283.6%; in test [2] (setting [3]) it was 116.35%. The EC50 turned out to be 1.1 µM in test [1] and 1.31 µM in test [2] (setting [4]).

Regarding `O=C(O)c1cc(N2CCC(N3CCOCC3)CC2)c2c(C3CCC3)nn(-c3ccc4c(c3)OC(F)(F)O4)c2n1` [compound 906, 3-cyclobutyl-1-(2,2-difluoro-2H-1,3-benzodioxo1-5-yl)-4-[4-(morpholin-4-yl)piperidin-1-yl]-1H-pyrazolo[3,4-b]pyridine-6-carboxylic acid], in test [1], the “% Activation” value stood at 485.34% and the EC50 is 0.0728 µM. In test [2] (setting [5]), the “% Activation” value was 276.92% and the EC50 came out at 0.146 µM.

For the compound `CC(C)c1nn(-c2ccc(OC(F)(F)F)cc2)c2nc(C(=O)O)cc(-c3ccc(N4CCOCC4)cc3)c12` [compound 43, 4-[4-(morpholin-4-yl)phenyl]-3-(propan-2-yl)-1-[4-(trifluoromethoxy)phenyl]-1H-pyrazolo[3,4-b]pyridine-6-carboxylic acid], the figures for the “% Activation” value in test [1] and in test [2] (setting [3]) were 360.8% and 187.4%, respectively. The EC50 was 0.371 µM in test [1] and 0.408 µM in test [2] (setting [4]).

Consider `CC(C)OC1CCN(c2cc(C(=O)O)nc3c2c(C2CCC2)nn3-c2ccccc2)CC1` [compound 372, 3-cyclobutyl-1-phenyl-4-{4-[(propan-2-yl)oxy]piperidin-1-yl}-1H-pyrazolo[3,4-b]pyridine-6-carboxylic acid], for which the “% Activation” value in test [1] amounted to 388.6%; in test [2] (setting [3]), 179%. Also, the EC50 in test [1] amounted to 0.127 µM; in test [2] (setting [4]), 0.262 µM.

Take `CC(C)c1nn(-c2ccc(F)cc2)c2nc(C(=O)O)cc(N3CCCN(C(C)C)CC3)c12` [compound 795, 1-(4-fluorophenyl)-3-(propan-2-yl)-4-[4-(propan-2-yl)-1,4-diazepan-1-yl]-1H-pyrazolo[3,4-b]pyridine-6-carboxylic acid]: in test [1], the “% Activation” value came out at 175.3% and the EC50 is 1.67 µM. Besides, in test [2] (setting [5]), the “% Activation” value is 47.22% and the EC50 was 1.67 µM.

In the case of `Cc1nn(-c2ccccc2)c2nc(C(=O)O)cc(O[C@H]3CCN(C)C3)c12` [compound 337, 3-methyl-4-{[(3S)-1-methylpyrrolidin-3-yl]oxy}-1-phenyl-1H-pyrazolo[3,4-b]pyridine-6-carboxylic acid], the “% Activation” value in test [1] is on record as 139.85%; in test [2] (setting [3]) it was 15.48%. Also, the EC50 is 4.17 µM in test [1] and 7.5 µM in test [2] (setting [4]).

With `O=C(O)c1cc(N2CC[C@H](O)[C@H](F)C2)c2c(C3CCC3)nn(-c3ccccc3)c2n1` [compound 509, 3-cyclobutyl-4-[(3R,4S)-3-fluoro-4-hydroxypiperidin-1-yl]-1-phenyl-1H-pyrazolo[3,4-b]pyridine-6-carboxylic acid], in test [1], the “% Activation” value turned out to be 344.6% and the EC50 amounted to 1.67 µM. Further, in test [2] (setting [5]), the “% Activation” value was 123.6% and the EC50 was 1.24 µM.

As for `O=C(O)c1cc(N2CCC(N3CCOCC3)CC2)c2c(C3CCC3)nn(-c3ccnc(OC4CCOCC4)c3)c2n1` [compound 918, 3-cyclobutyl-4-[4-(morpholin-4-yl)piperidin-1-yl]-1-{2-[(oxan-4-yl)oxy]pyridin-4-yl}-1H-pyrazolo[3,4-b]pyridine-6-carboxylic acid], the results for the “% Activation” value in test [1] and in test [2] (setting [6]) were 352.1% and 149.75%, respectively. In addition, the EC50 in test [1] worked out at 0.479 µM; in test [2] (setting [6]), 0.712 µM.

In the case of `COCCC1(CCOc2cc(C(=O)O)nc3c2c(C2CCC2)nn3-c2ccccc2)CC1` [compound 484, 3-cyclobutyl-4-{2-[1-(2-methoxyethyl)cyclopropyl]ethoxyl}-1-phenyl-1H-pyrazolo[3,4-b]pyridine-6-carboxylic acid], the “% Activation” value amounted to 226.6% in test [1] and 113.5% in test [2] (setting [5]). Further, the EC50 turned out to be 0.369 µM in test [1] and 1.11 µM in test [2] (setting [5]).

As to `CC(C)c1nn(-c2ccc(F)cc2)c2nc(C(=O)O)cc(N3CCN(CC4CCCO4)CC3)c12` (stereo not shown) [compound 792, 1-(4-fluorophenyl)-4-{4-[(oxolan-2-yl)methyl]piperazin-1-yl}-3-(propan-2-yl)-1H-pyrazolo[3,4-b]pyridine-6-carboxylic acid], in test [1], the “% Activation” value is reported as 321% and the EC50 stood at 0.71 µM. Also, in test [2] (setting [5]), the “% Activation” value is recorded as 170.1% and the EC50 came to 1.43 µM.

On to `Cc1cccc(-n2nc(C(C)C)c3c(N4CC5(CCOCC5)C4)cc(C(=O)O)nc32)c1` [compound 258, 1-(3-methylphenyl)-4-(7-oxa-2-azaspiro[3.5]nonan-2-yl)-3-(propan-2-yl)-1H-pyrazolo[3,4-b]pyridine-6-carboxylic acid], for which the “% Activation” value worked out at 364.3% in test [1] and 169.7% in test [2] (setting [3]). The EC50 in test [1] worked out at 0.919 µM; in test [2] (setting [4]) it was 1.29 µM.

As for `CO[C@H]1CC[C@H](Oc2cc(C(=O)O)nc3c2c(C2CCC2)nn3-c2ccccc2)CC1` [compound 429, 3-cyclobutyl-4-[(trans-4-methoxycyclohexyl)oxy]-1-phenyl-1H-pyrazolo[3,4-b]pyridine-6-carboxylic acid], the “% Activation” value in test [1] is given as 268.2%; in test [2] (setting [5]), 114.95%. Further, the EC50 in test [1] came out at 0.37 µM; in test [2] (setting [5]), 0.979 µM.

In the case of `O=C(O)c1cc(N2CC[C@H](F)[C@H](O)C2)c2c(C3CCC3)nn(-c3ccccc3)c2n1` [compound 535, 3-cyclobutyl-4-[(3R,4S)-4-fluoro-3-hydroxypiperidin-1-yl]-1-phenyl-1H-pyrazolo[3,4-b]pyridine-6-carboxylic acid], in test [1], the “% Activation” value turned out to be 205.9% and the EC50 is 1.41 µM. Further, in test [2] (setting [5]), the “% Activation” value turned out to be 56.68% and the EC50 amounted to 2.85 µM.

On to `CC(C)OC1CN(c2cc(C(=O)O)nc3c2c(C2CCC2)nn3-c2ccccc2)C1` [compound 573, 3-cyclobutyl-1-phenyl-4-{3-[(propan-2-yl)oxy]azetidin-1-yl}-1H-pyrazolo[3,4-b]pyridine-6-carboxylic acid], for which the “% Activation” value in test [1] came out at 376%; in test [2] (setting [5]), 149.7%. The EC50 in test [1] amounted to 0.299 µM; in test [2] (setting [5]), 0.974 µM.

Turning to `CC(C)c1nn(-c2cc(F)cc(F)c2)c2nc(C(=O)O)cc(-c3ccc(N(C)C4CCOCC4)nc3)c12` [compound 246, 1-(3,5-difluorophenyl)-4-{6-[methyl(oxan-4-yl)amino]pyridin-3-yl}-3-(propan-2-yl)-1H-pyrazolo[3,4-b]pyridine-6-carboxylic acid], the “% Activation” value in test [1] was 457.57%; in test [2] (setting [3]), 212.75%. The EC50 came out at 0.467 µM in test [1] and 0.464 µM in test [2] (setting [4]).
